Data on three compounds can be found in patent US20250002461A1, “DEUTERATED (TRIFLUOROMETHYL)PYRIMIDINE-2-AMINE COMPOUNDS AS POTENTIATORS OF THE HMRGX1 RECEPTOR” (Eli Lilly and Company, priority 2021, published 2025).

In general, fraction unbound refers to free concentration divided by total concentration. The Vd is a proportionality between amount in the body and measured concentration, not a real space. The term bioavailability denotes dose-corrected exposure relative to a reference, in per cent. The low end stands for poor availability, the high end for good availability. As a reminder, the EC50 is the concentration at which the effect is half-maximal. A word on the hepatocyte CLint: it is a measure of how fast metabolising enzymes remove a compound, apart from limits set by blood flow. A higher hepatocyte CLint goes with rapid turnover.

A short description of data set [1]: Plasma and brain homogenate protein binding by equilibrium dialysis. Format: in vitro ADME, mouse. How it is done: Determination of plasma and brain protein binding: Mouse plasma and brain homogenate protein binding was determined in vitro using equilibrium dialysis, as described elsewhere [Zamek-Gliszczynski et al., J Pharm Sci, 101:1932-1940, 2012]. The results are reported as fraction unbound in plasma (fu,plasma) and brain (fu,brain) which are then utilized to calculate Kp,uu,brain as described below. Mouse fu,plasma and fu,brain of Example 1 was determined to be 0.0667 and 0.011, respectively.
In general terms: In equilibrium dialysis free small molecules cross a membrane that holds back macromolecules.

Data set [2] in a line: In vivo determination of Kp,uu,brain in mice. As to conditions: male, CD1 (ICR), mouse, 100 mg/kg oral. From the text:
In Vivo Determination of Kp,uu,Brain in Mice
Unbound brain-to-plasma partition coefficient (Kp,uu,brain) is one of the key pharmacokinetic parameters for evaluating a compound's ability to cross the blood-brain barrier (BBB). It is typically measured in pre-clinical species using the following methodology. Kp,uu,brain values indicate the fraction of free drug in plasma that partitions across the BBB.
Subjects: The subjects for these studies were 12 male CD1 (ICR) mice (Envigo, Indianapolis, IN, USA) between 5-7 weeks old at time of test. Mice were housed in groups of 4 in high density plastic home cages. Food and water were available ad libitum. The rooms were maintained at 73° F. with 30-70% relative humidity and kept on a light/dark cycle of 0600-1800 h.
Agent: The compound of Example 1 was prepared at 10 mg/ml in the 1% HEC, 0.25% TWEEN®80, 0.05% DOWSIL™ vehicle in water. Prepared compound was sonicated in water bath for 30 min until a suspension was formed. Mice were dosed orally at 10 ml/kg for a 100 mg/kg dose.
Dosing and Tissue Collection: For this experiment, ten mice received oral dosing of 100 mg/kg of the compound of Example 1. Mice were then euthanized at 2 h post-dosing via CO2 asphyxiation, plasma samples were collected via cardia puncture, and mouse brains removed, weighed, and frozen on dry ice. Blood samples were stored in EDTA tubes on wet ice and centrifuged at 15 k rpm for 10 min. Plasma was collected, plated in a 96-well plate, and frozen at −80° C.
Pharmacokinetic sampling: Plasma and brain samples obtained were analyzed for Example 1 using an LC-MS/MS method (Q2 Solutions, Indianapolis, IN, USA). Plasma samples were extracted using protein precipitation. The lower limit of quantification was 25 ng/mL, and the upper limit of quantification was 5000 ng/mL. Brain samples were homogenized, and the analyte was extracted using protein precipitation. The lower limit of quantification was 4 ng/g and the upper limit of quantification was 200000 ng/g.
Analysis and Results: Kp,uu,brain was calculated for each time point from the expression below where individual components are derived from a combination of in vitro and in vivo measurements carried out as described above:
where Ctotal,brain, Cu,brain, Ctotal,plasma, and Cu,plasma are total and unbound brain and plasma concentrations, and fu,brain and fu,plasma are fractions unbound in brain and plasma, respectively.

A short description of data set [3]: Determination of pharmacokinetics in mice. The data set is classed as in vivo, mouse. As to conditions: male CD-1 mice; for CLIV / Vd: IV 1 mg/kg; for Vd / bioavailability: mouse, whole blood (dried blood spot); for Vd: read-out: Vd, ss; for bioavailability: PO 10 mg/kg vs IV 1 mg/kg. As for the experimental part: Determination of Pharmacokinetics in Mice
Subjects: The subjects for these studies were male CD-1 mice from either Envigo, (Indianapolis, IN, USA) or Charles River Laboratories, Inc (Raleigh, NC, USA) between 4-12 weeks old at time of test. Each dosing group has three animals, and food and water is available ad libitum.
Dosing and Sample Collection: The test compound was administered intravenously (IV) via tail vein at 1 mg/kg (using vehicle: 25% (v/v) Dimethylacetamide (DMA), 15% (v/v) Ethanol (EtOH), 10% (v/v) Propylene Glycol (PG), 25% 2-Pyrrolidone (2-P), and 25% purified water) and orally (PO) via gavage needle at 10 mg/kg (using a vehicle of 1% (w/v) Hydroxyethylcellulose, 0.25% (w/v) Polysorbate 80, 0.05% (v/v) Antifoam1510-US in purified water quantum satis. Blood for dried blood spot (DBS) collection (approximately 20 μL) was collected from each available animal via a saphenous vein utilizing K2EDTA capillary tubes and stored at ambient temperature until analysis. Serial blood samples are collected at 0.08, 0.25, 0.5, 1, 2, 4, 8, 12, 24, and 48 h post dose for IV bolus and at 0.25, 0.5, 1, 2, 4, 8, 12, 24, and 48 h post dose after oral administration.
Sample Analysis: DBS cards (3 mm punches) of samples or standards were each mixed with a 180 uL solution of methanol: acetonitrile (1/1, v/v) containing internal standard to extract analyte followed by a two-fold dilution with water. A 10 uL aliquot of sample or standard is analyzed using an LC-MS/MS method. For Compound A, the lower limit of quantification (LLQ) was 5 ng/ml and the upper limit of quantification (ULQ) was 2500 ng/mL. For the compound of Example 1, the LLQ was 10 ng/ml and ULQ was 10,000 ng/mL
Calculation of pharmacokinetic parameters: Test article concentration data was uploaded into the Thermo Scientific™ Watson LIMS™ system where noncompartmental analysis was used to calculate Area Under the Curve (AUC) for both IV and PO arms, and Mean Residence Time (MRT) from the IV arm. • Bioavailability (% F) was calculated as follows,
[formula] • IV Clearance (CLIV) was calculated as follows,
[formula] • Volume of distribution at steady state (Vd,ss) was calculated as follows, […]

Data set [4] addresses T1, human MrgX1 receptor (Homo sapiens, UniProt Q96LB2).
T1 construct: expressed in transfected cells
The experiment in a line: IP1 cellular assay for EC50 determination against hMrgX1 by HTRF. The data set is classed as cell-based. As to conditions: for EC50: HEK293 cells expressing human MrgX1, in presence of EC15 of BAM8-22, geometric mean (SEM, n), read-out: Relative EC50 (SEM, n); for Max (Mean ± SEM): maximum stimulation relative to saturating BAM8-22. As for the experimental part: IP1 Cellular Assay for EC50 Determination Against hMrgX1 by HTRF
Cell plating: HEK293 cells stably expressing the recombinant human MrgX1 receptor were expanded in culture flasks (Corning, T150), using growth media containing DMEM with glutamine (GIBCO™ Cat. #11960-044) supplemented with 10% heat-inactivated FBS (HyClone™, Cat. #CH30073), 1% penicillin/streptomycin (HyClone™, Cat. #SV30010; 10,000 U/mL penicillin; 10,000 μg/mL streptomycin in 0.85% NaCl), 20 mM HEPES (GIBCO™, Cat. #15630122) and 0.3 mg/mL G418 (GIBCO™ Cat. #11811031). When cell monolayers achieved a level of 80-90% confluence, monolayers were washed once with 10 mL of DPBS (HyClone™, Cat. #14190-144), dissociated using TrypLE™ Express enzyme cell dissociation media (GIBCO™ Cat. #12605-010), and were diluted by addition of 10 mL DPBS. Dissociated cells were transferred to a sterile 50 mL conical tube, pelleted by centrifugation at 300×g to remove the growth and dissociation media, and diluted to 1M cells/mL into DMEM for plating.
IP1 Potency and Efficacy Determination: Test compounds were dissolved in DMSO to a concentration of 10 mM and serially diluted in DMSO to obtain a 10-point concentration response stock dilution plate. Growth media was removed from the cell plate, and the stock 10-point dilution plate was diluted into media and stamped into the cell plate at a concentration 2× higher than the final test concentration of […] maximum. The endogenous agonist BAM8-22 (Tocris-BioScience Cat. #1763) was diluted to the EC15, determined independently at a minimum of n=3, into the cell plate and incubated at room temperature for 120 min. Subsequently, half the volume each of anti-IP1 cryptate and d2-labeled IP1 in lysis buffer, supplied with the IP-One Gq Kit (CisBio Cat. #62IPAPEC) was added to the cell plate to initiate cell lysis, and incubated for 60 min at room temperature in the dark. Fluorescence was then determined at 620 and 665 nm (˜100 us following laser excitation).
Data Analysis: Fluorescent ratios were determined as the ratio of the fluorescence emission at 665 nm over 620 nm and converted to IP1 concentration, using the IP1 standard curve generated in a separate plate, following the manufacturer's instructions. The IP1 concentration was then plotted as a function of compound concentration. […]

The nature of data set [5]: Intrinsic clearance in human cryopreserved hepatocytes. Format: in vitro ADME. The note with it: 0.3 μM substrate, 37° C. How it is done:
(§1) In Vitro Determination of Intrinsic Clearance in Mice and Human Hepatocytes
(§2) Cryopreserved hepatocytes are used to determine the in vitro metabolic clearance of pharmaceutical candidates. The following assay was conducted to compare the compound of Example 1 to its undeuterated analog, referred to hereinafter as Compound A:
(§3) Compound incubations (0.3 μM substrate concentrations) were then performed in a 96-well plate format at 37° C. with 200,000 cells/well, shaking at approximately 600 rpm. Incubations were initiated by direct addition of 2 μL of the substrate compounds. At 0, 15, 30, 60, and 90 minutes, 20 μL of incubation samples were quenched with 80 μL acetonitrile containing internal standard. Quenched plates were foil sealed, centrifuged for 30 minutes at 4000 rpm and analyzed for substrate by liquid chromatography with tandem mass spectrometry (LC-MS/MS).
(§4) Intrinsic clearance is a measure of the maximum potential liver metabolism of a compound when not restricted by blood flow or protein binding This intrinsic clearance was determined from the elimination rate constants (kdep; min^−1) measured from the disappearance of substrate in the incubations over time, using the following equation: […]

A short description of data set [6]: Intrinsic clearance in mouse cryopreserved hepatocytes. The note with it: 0.3 μM substrate, 37° C. Format: in vitro ADME. How it is done:
as §1, §2, §3, §4

The structures appear in SMILES notation. Like-named read-outs stand apart in the source and are kept apart here.

T1 sequence (Q96LB2 whole entry): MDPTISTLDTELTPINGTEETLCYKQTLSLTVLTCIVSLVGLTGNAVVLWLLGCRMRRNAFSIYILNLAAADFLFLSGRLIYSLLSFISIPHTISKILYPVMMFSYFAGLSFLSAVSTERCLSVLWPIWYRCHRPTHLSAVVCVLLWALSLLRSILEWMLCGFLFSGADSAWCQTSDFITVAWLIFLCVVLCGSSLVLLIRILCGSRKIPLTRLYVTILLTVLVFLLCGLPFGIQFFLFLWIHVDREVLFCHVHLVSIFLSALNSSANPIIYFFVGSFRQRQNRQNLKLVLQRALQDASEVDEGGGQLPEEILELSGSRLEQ

In the case of `[2H]C([2H])([2H])c1c(Oc2c(F)cc(C#N)cc2F)nc(N)nc1C(F)(F)F` [Example 1, 4-[2-amino-5-(trideuteriomethyl)-6-(trifluoromethyl)pyrimidin-4-yl]oxy-3,5-difluoro-benzonitrile], the fraction unbound is 0.011 in data set [1] (mouse brain homogenate, read-out: fraction unbound in brain (fu,brain)) and 0.0667 in data set [1] (mouse plasma, read-out: fraction unbound in plasma (fu,plasma)). Besides, the concentration at 2 h amounted to 0.706 ± 0.25 µM in data set [2] (brain (unbound), 2 h, using mouse fu,brain 0.011, read-out: Unbound brain conc. (Cu, brain) ± SD); 64.1 ± 22.7 µM in data set [2] (brain, 2 h post dose, read-out: Total brain conc. (Ctotal, brain) ± SD); 1.25 ± 0.418 µM in data set [2] (plasma (unbound), 2 h, using mouse fu,plasma 0.0667, read-out: Unbound plasma conc. (Cu, plasma) ± SD); 18.8 ± 6.26 µM in data set [2] (plasma, 2 h post dose, read-out: Total plasma conc. (Ctotal, plasma) ± SD). Further, in data set [2] (2 h, unbound brain-to-plasma partition coefficient), the Kp uu at 2 h was 0.586. This compound also yielded a CLIV in data set [3] of 7.7 ± 1.3 mL/min/kg. Moreover, the Vd in data set [3] is 9.5 ± 3.1 L/kg. In addition, the bioavailability in data set [3] is 60 ± 2.6%. In data set [4], the EC50 was determined as 22 nM. In addition, the “Max (Mean ± SEM)” value in data set [4] is recorded as 111 ± 14.9, n = 4%. In addition, the hepatocyte CLint at 0.3 μM in data set [5] is 6.47 µL/min/1e6 cells; in data set [6] it was less than 1.8 µL/min/1e6 cells.
Take `[2H]C([2H])([2H])c1c(Oc2c(F)cccc2F)nc(N)nc1C(F)(F)F` [Example 2, 4-(2,6-difluorophenoxy)-5-(trideuteriomethyl)-6-(trifluoromethyl)pyrimidin-2-amine]: in data set [4], the EC50 was found to be 28 nM and the “Max (Mean ± SEM)” value was 106 ± 8.16, n = 4%.
Regarding `Cc1c(Oc2c(F)cc(C#N)cc2F)nc(N)nc1C(F)(F)F` [Compound A, reference compound], in data set [3], the CLIV came to 16.1 ± 1.7 mL/min/kg, the Vd worked out at 6.6 ± 0.1 L/kg and the bioavailability was 34 ± 3.7%. In data set [5], this compound displayed a hepatocyte CLint at 0.3 μM of 2.62 µL/min/1e6 cells. The same compound showed a hepatocyte CLint at 0.3 μM in data set [6] of less than 1.8 µL/min/1e6 cells.
